# Test results from patent publication US12503440B2, “Nitroxoline derivative, preparation method therefor, and use thereof” (Jiangsu Yahong Meditech Co., Ltd., priority 2020, dated 2025).
# Key:
# Experiment in all cases: Bacteriostatic activity, micro broth dilution MIC (CLSI)
# Type in all cases: cell-based
# [1] = system: Escherichia coli; conditions: 20 hours; for MIC50 / MIC90: clinical strains (carbapenem-resistant), CAMHB; for MIC50: read-out: Escherichia coli Clinical strain MIC50; for MIC90: read-out: Escherichia coli Clinical strain MIC90; for MIC: standard strain ATCC25922, CAMHB
# Description: (§1) The purpose of this test is to determine the bacteriostatic activity of the compounds of the present invention against a representative panel of strains (Gram-negative bacteria: […] ATCC 25922, Acinetobacter baumannii ATCC 19606; Gram-positive bacteria: Staphylococcus aureus ATCC29213). Bacteriostatic activity was determined by minimum inhibitory concentration (MIC), MIC50, MIC90. This test was entrusted to Shanghai Junj Lab Co., Ltd. Except for the test drugs, all other test materials were provided by Shanghai Junj Lab Co., Ltd.
# (§2) The tested bacteria were several strains of clinically isolated carbapenem-resistant Escherichia coli, several strains of carbapenem-resistant Acinetobacter baumannii, several strains of methicillin-resistant Staphylococcus aureus, and several strains of sensitive Staphylococcus aureus. Duplicate strains isolated from the same patient were eliminated. There were also three quality control strains Escherichia coli ATCC 25922, Acinetobacter baumannii ATCC 19606, and Staphylococcus aureus ATCC 29213. The activity test of each compound was carried out on one or more strains of each of the above test bacteria.
# (§3) According to the recommendations of relevant documents of the American Clinical and Laboratory Standards Institute (CLSI), the micro broth dilution method was used to determine the MIC of the compounds of the present invention against clinically isolated strains. The culture solution free of drug was used as the test bacteria positive control, the culture solution free of bacterial solution was used as the drug negative control, and the culture solution free of drug solution and bacterial solution was used as the blank control. • 4.1 Formulation of antibacterial drug: All the compounds of the present invention were dissolved in DMSO. The drug concentration range was 128 mg/L-0.06 mg/L. Specific method: The compounds of the present invention were successively diluted by 1:1 with DMSO to obtain an intermediate series with a range of 25600 mg/L-12.5 mg/L. 30 μL of solution from each tube of the intermediate series of each compound was added to a 3 mL/tube series of single broth tube, and mixed well to obtain an intermediate series with a range of 256 mg/L to 0.125 mg/L. The diluted series solution was added to the drug susceptibility plate line by line, 50 μL of solution per well. All ranges became investigated ranges after being mixed with an equal volume of bacterial solution: 128-0.06 mg/L. • 4.2 Culture medium: The drug susceptibility test used cation adjusted Mueller-Hinton broth (CAMHB). • 4.3 Amount of inoculum: The test bacteria cultured overnight were adjusted to 0.5 McFarland turbidity by the direct colony suspension method, and diluted 100 folds, the final inoculum amount was 10^5 CFU/mL. • 4.4 Culture conditions: The test bacteria were cultured at 35±2° C. for 20 hours in air. 5. Interpretation and Judgment of Results
# (§4) The drug susceptibility test results were interpretated by reference to CLSI 2019 edition M100 29th edition criteria.
# (§5) The results of drug susceptibility test were statistically analyzed by WHONET version 5.6 software.
# (§6) The culture solution free of bacterial solution was used as the drug negative control, and the culture solution free of drug solution and bacterial solution was used as the blank control, wherein no bacteria grew in both solutions.
# [2] = system: Staphylococcus aureus; conditions: 20 hours; for MIC50 / MIC90: clinical strains (methicillin-resistant and sensitive), CAMHB; for MIC50: read-out: Staphylococcus aureus Clinical strain MIC50; for MIC90: read-out: Staphylococcus aureus Clinical strain MIC90; for MIC: standard strain ATCC29213, CAMHB
# Description: as §1, §2, §3, §4, §5, §6
# [3] = system: Acinetobacter baumannii; conditions: 20 hours; for MIC50 / MIC90: clinical strains (carbapenem-resistant), CAMHB; for MIC50: read-out: Acinetobacter baumannii Clinical strain MIC50; for MIC90: read-out: Acinetobacter baumannii Clinical strain MIC90; for MIC: standard strain ATCC19606, CAMHB
# Description: as §1, §2, §3, §4, §5, §6
MIC50 [1] [µg/mL],MIC90 [1] [µg/mL],MIC [1] [µg/mL],MIC50 [2] [µg/mL],MIC90 [2] [µg/mL],MIC [2] [µg/mL],MIC50 [3] [µg/mL],MIC90 [3] [µg/mL],MIC [3] [µg/mL],SMILES
16,32,16,16,16,16,32,32,16,"N#Cc1ccnc2c(O)ccc([N+](=O)[O-])c12 [Example 27, 4-cyano-5-nitroquinolin-8-ol]"
64,128,64,2,4,4,64,128,32,"CCOC(=O)c1cnc2c(O)ccc([N+](=O)[O-])c2c1 [Example 32, ethyl 8-hydroxy-5-nitroquinoline-3-carboxylate]"
32,32,,4,4,,32,64,,"CC(C)c1cc(O)c2ncccc2c1[N+](=O)[O-] [Example 33, 8-hydroxy-6-isopropyl-5-nitroquinoline]"
16,16,,4,4,,8,32,,"O=[N+]([O-])c1c(C2CC2)cc(O)c2ncccc12 [Example 34, 8-hydroxy-6-cyclopropyl-5-nitroquinoline]"
64,64,64,1,1,2,,,,"O=C(OCC1CC1)c1cnc2c(O)ccc([N+](=O)[O-])c2c1 [Example 39, cyclopropylmethyl 8-hydroxy-5-nitroquinoline-3-carboxylate]"
8,8,8,64,64,32,,,,"CCN(CC)C(=O)c1cnc2c(O)ccc([N+](=O)[O-])c2c1 [Example 40, N,N-diethyl-8-hydroxy-5-nitroquinoline-3-carboxamide]"
64,64,64,64,64,64,,,,"O=[N+]([O-])c1c(F)cc(O)c2ncccc12 [Example 42, 8-hydroxy-6-fluoro-5-nitroquinoline]"
128,128,128,2,2,4,128,128,128,"O=C(OC1CCCCC1)c1cnc2c(O)ccc([N+](=O)[O-])c2c1 [Example 43, cyclohexyl 8-hydroxy-5-nitroquinoline-3-carboxylate]"
